From patent US4309305A, “In vitro removal of actinide (IV) ions” (priority 1979, dated 1982)

How the values were obtained:
[1] = Distribution of ^238 Pu-citrate in Mouse Tissues (actinide-ion sequestering activity, animal studies); type: in vivo; set-up: Liver, distribution of ^238 Pu-citrate (mean) / Skel, distribution of ^238 Pu-citrate (mean) / G.I., distribution of ^238 Pu-citrate (mean) / Kidney, distribution of ^238 Pu-citrate (mean) / Total, distribution of ^238 Pu-citrate: unit not given here
Procedure: Specifically, animal studies were carried out with compounds 2, 3, 4, and 10.
Distribution of ^238 Pu-Citrate in Mouse Tissues
Age of animals 74 weeks 74 weeks
^(b) Animals injected I.P. (Intraperitoneum)
(§1) Distribution of ^238 Pu-citrate in Mouse Tissues
Age of Animals 68 weeks 68 weeks
^(a) Animals injected I.M. (Intramuscular)
as §1
^(b) Animals injected I.P.
Age of animals 18 weeks 18 weeks
^(a) Animals injected I.M.

[2] = pH-titration of the constituent catechol groups; type: physicochemical; conditions: 4 protons, 4 constituent catechol groups
Procedure: Compound 2. Using method B, precusor 3 (1.0 g, 1.0 mmol) dissolved in CH2 Cl2 (25 ml) was added dropwise (15 min) via an addition funnel to an ice bath cooled, vigorously stirred solution of BBR3 (2 ml, 21 mmol) in CH2 Cl2 solution (25 ml). The ice bath was allowed to warm up to room temperature as the reaction slurry was stirred overnight. Cautious addition of H2 O (20 ml) was followed by an additional 2 hrs stirring to hydrolyze all boron compounds. Crude product was collected by filtration and washed well with H2 O. The pink-tan solid was dissolved in MeOH and precipitated by the addition of Et2 O. Drying at 115° (5-10 microns) overnight gave the demethylated product, compound 2 (0.88 mmol, 88%) as hygroscopic powder which analyzed with two waters of crystallization: m.p.
Compound 3 (1.0 g, 1.2 mmol) was dissolved in 98% H2 SO4 (5 ml), then SOCl2 (5 ml, 55 mmol) was added dropwise over a period of 1 hr with vigorous stirring. The reactants were protected from the atmosphere with a Drierite tube. After stirring overnight, the reaction mixture was poured onto ice. Workup as in method C gave white solid, 1.49 g (1.0 mmol, 85%) which analyzed as compound 4.3 NaCl.H2 O: IR (KBr) identical to that recorded in method A; purity also established by pH-titration giving pKa1 8.12 (4 protons) and pKa2 12.0 (4 protons) for the four constituent catechol groups.
Using precisely the same Method D, compound 7 was converted to compound 8. Thus was obtained hygroscopic white solid, 1.4 g (90%); IR (KBr) 2800-3700 s, 1600 s (>N--CO--), 1475, 1425 m, 1150-1300 s (--SO3 ^-1), 1100, 1045 s (--SO3^-), 620 (--SO3^-); purity also established by pH-titration giving pKa1 7.49 (4 protons) and pKa2 12.1 (4 protons) for the four constituent catechol groups.

[3] = tested on: animals; test: Toxicity studies / toxicity to animals; conditions: in vivo
[4] = qualitative observation of dissolution of Pu(IV) in the presence of the compound
[5] = I.P., killed 1 day after Pu injection, 13.5 weeks old
[6] = I.M., killed 2 days after Pu injection, 68 weeks old
[7] = I.M., killed 1 day after Pu injection, 18 weeks old
[8] = I.P., killed 2 days after Pu injection, 74 weeks old

Molecule: 1,5,9,13-N,N',N'',N'''-Tetra(2,3-dihydroxybenzoyl)tetraazacyclohexadecane sodium sulfonate [Compound 4]
- Feces, distribution of ^238 Pu-citrate (mean) [1, 5]: 3.1
- G.I., distribution of ^238 Pu-citrate (mean) [1, 5]: 8.2
- Kidney, distribution of ^238 Pu-citrate (mean) [1, 5]: 3.9
- Liver, distribution of ^238 Pu-citrate (mean) [1, 5]: 24.8
- Skel, distribution of ^238 Pu-citrate (mean) [1, 5]: 15.7
- Skin, distribution of ^238 Pu-citrate (mean) [1, 5]: 4.1
- Soft Tis, distribution of ^238 Pu-citrate (mean) [1, 5]: 6.4
- Total, distribution of ^238 Pu-citrate [1, 5]: 100
- Urine, distribution of ^238 Pu-citrate (mean) [1, 5]: 33.8
- pKa1 [2]: 8.12
- pKa2 [2]: 12.0

Molecule: 1,6,11,16-N,N',N'',N'''-Tetra(2,3-dihydroxybenzoyl)tetraazahexadecane potassium sulfonate [Compound 8]
- pKa1 [2]: 7.49
- pKa2 [2]: 12.1

Molecule: O=C(c1cccc(O)c1O)N1CCCN(C(=O)c2cccc(O)c2O)CCCN(C(=O)c2cccc(O)c2O)CCCN(C(=O)c2cccc(O)c2O)CCC1 [Compound 3, 1,5,9,13-N,N',N'',N'''-Tetra(2,3-dihydroxybenzoyl)tetraazacyclohexadecane]
- G.I., distribution of ^238 Pu-citrate (mean) [1, 6]: 4.4
- Kidney, distribution of ^238 Pu-citrate (mean) [1, 6]: 42.1
- Liver, distribution of ^238 Pu-citrate (mean) [1, 6]: 23.3
- Skel, distribution of ^238 Pu-citrate (mean) [1, 6]: 20.3
- Total, distribution of ^238 Pu-citrate [1, 6]: 101.6
- Urine, Feces (one value printed between both lines), distribution of ^238 Pu-citrate (mean) [1, 6]: 11.5
- acute toxicity [3]: substantially acutely non-toxic

Molecule: O=C(c1cccc(O)c1O)N1CCCN(C(=O)c2cccc(O)c2O)CCN(C(=O)c2cccc(O)c2O)CCCN(C(=O)c2cccc(O)c2O)CC1 [Compound 1, 1,4,8,11-N,N',N'',N'''-Tetra(2,3-dihydroxybenzoyl)tetraazacyclotetradecane]
- dissolution of Pu(IV) in presence of compound ([4]; even at high pH, qualitative): Pu(IV) dissolved in the presence of compound 1 even at high pH
- formation constant for the Pu(IV) complex ([4]; inferred from dissolution of Pu(IV) and Ksp for Pu(OH)4): very high formation constant

Molecule: 1,4,8,11-N,N',N'',N'''-Tetra(2,3-dihydroxybenzoyl)tetraazaundecane potassium sulfonate [Compound 10]
- Feces, distribution of ^238 Pu-citrate (mean) [1, 7]: 2.2
- G.I., distribution of ^238 Pu-citrate (mean) [1, 7]: 10.2
- Kidney, distribution of ^238 Pu-citrate (mean) [1, 7]: 4.8
- Liver, distribution of ^238 Pu-citrate (mean) [1, 7]: 28.8
- Skel, distribution of ^238 Pu-citrate (mean) [1, 7]: 12.1
- Skin, distribution of ^238 Pu-citrate (mean) [1, 7]: 5.7
- Soft Tis, distribution of ^238 Pu-citrate (mean) [1, 7]: 7.1
- Total, distribution of ^238 Pu-citrate [1, 7]: 101.1
- Urine, distribution of ^238 Pu-citrate (mean) [1, 7]: 29.2

Molecule: O=C(c1ccc([N+](=O)[O-])c(O)c1O)N1CCCN(C(=O)c2ccc([N+](=O)[O-])c(O)c2O)CCN(C(=O)c2ccc([N+](=O)[O-])c(O)c2O)CCCN(C(=O)c2ccc([N+](=O)[O-])c(O)c2O)CC1 [Compound 2, 1,4,8,11-N,N',N'',N'''-Tetra(2,3-dihydroxy-4-nitrobenzoyl)tetraazacyclotetradecane]
- Feces, distribution of ^238 Pu-citrate (mean) [1, 8]: 5.4
- G.I., distribution of ^238 Pu-citrate (mean) [1, 8]: 16.3
- Kidney, distribution of ^238 Pu-citrate (mean) [1, 8]: 6.0
- Liver, distribution of ^238 Pu-citrate (mean) [1, 8]: 36.6
- Skel, distribution of ^238 Pu-citrate (mean) [1, 8]: 7.9
- Skin, distribution of ^238 Pu-citrate (mean) [1, 8]: 11.2
- Soft Tis, distribution of ^238 Pu-citrate (mean) [1, 8]: 14.8
- Total, distribution of ^238 Pu-citrate [1, 8]: 100
- Urine, distribution of ^238 Pu-citrate (mean) [1, 8]: 1.8
- pKa1 [2]: 5.59
- pKa2 [2]: 11.8
- toxicity to animals [3]: toxic to animals
